Source: paper PMC6644994, “Chemical Ligand Space of Cereblon” (ACS Omega, 2018)
“Also recorded” adds a separate entry of the source. Like-named read-outs stand apart in the source and are kept apart here.

Key:
MsCI4 [1] = molecular target: MsCI4 (Magnetospirillum gryphiswaldense, UniProt A4TVL0, W36F/W59F); experiment: biochemical; format: binding
[2] = system: zebrafish embryos (cereblon-mediated pectoral fin malformation); experiment: Zebrafish pectoral fin deformity assay
[3] = system: zebrafish embryos (cereblon-mediated pectoral fin malformation); conditions: cited from earlier work
MsCI4 [4] = molecular target: T1, MsCI4 (Magnetospirillum gryphiswaldense, UniProt A4TVL0); experiment: X-ray crystallography of MsCI4·ligand crystals obtained by soaking; format: binding; set-up: key to binding verified via crystallography (symbol in Table S1): X-tal: binding verified via crystallography; conditions: for binding verified via crystallography (in words): MsCI4·thalidomide crystals soaked with solid rolipram
T1 sequence (A4TVL0 1-124): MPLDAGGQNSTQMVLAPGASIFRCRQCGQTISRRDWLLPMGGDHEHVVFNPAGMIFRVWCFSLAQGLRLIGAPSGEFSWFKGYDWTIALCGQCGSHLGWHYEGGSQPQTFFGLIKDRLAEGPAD
Source text: In a next step, we characterized the binding of representative compounds via X-ray crystallography. […] (II) The structures with ethosuximide, hydantoin, 2-thiohydantoin, and thiazolidine-2,4-dione verify that imides with 5-membered rings have the same basic binding mode as 6-membered rings. (III) The binding mode of γ-butyrolactam, δ-valerolactam and rolipram verifies that lactams have a binding mode analogous to imides, with their carbonyl group occupying position d. […] Importantly, in a direct comparison with the crystal structure of the human thalidomide-binding domain, none of the protruding moieties of the effectors is interacting or in contact with any nonconserved amino acid side chain, such that their binding modes are not influenced by species-specific differences (Figure S2).
After 40 h of soaking, these crystals were loop-mounted and flash-cooled in liquid nitrogen. Data were collected at 100 K and a wavelength of 1 Å on a PILATUS 6M-F detector at beamline X10SA of the Swiss Light Source (PSI, Villigen, Switzerland). Diffraction images were indexed, integrated, and scaled using XDS.[34] […] Data collection and refinement statistics are summarized together with PDB accession codes in Table S2. All molecular depictions were prepared using MolScript,[37] BobScript,[38] and Raster3D.[39]

[5] = zebrafish embryos, 400 μM, 75 h post fertilization
[6] = Table S1, affinity for MsCI4, FRET assay, read-out: Ki

Chain of MsCI4 (Magnetospirillum gryphiswaldense, UniProt A4TVL0, W36F/W59F) (A4TVL0 entry or part of it W36F/W59F): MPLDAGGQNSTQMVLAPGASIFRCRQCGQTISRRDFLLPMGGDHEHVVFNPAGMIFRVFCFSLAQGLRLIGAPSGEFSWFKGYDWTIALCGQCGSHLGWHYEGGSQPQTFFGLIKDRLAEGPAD

| Compound | Ki (MsCI4 [1]) [µM] | binding to MsCI4 in the FRET assay (in words) (MsCI4 [1]; FRET assay) | also measured |
| --- | --- | --- | --- |
| CCC1(c2ccc(N)cc2)CCC(=O)NC1=O (stereo not drawn) [Aminoglutethimide] | 39 ± 3.8 |  |  |
| O=C1CCC(=O)O1 [Succinic Anhydride] | > 1000 |  |  |
| CCC1(C)NC(=O)NC1=O (stereo not drawn) [5-Ethyl-5-methyl-hydantoin] | > 1000 | no binding was detectable |  |
| O=C1CNC(=O)N1 [Hydantoin, Imidazolidine-2,4-dione] | 43 ± 10.7 |  |  |
| CC(=O)NCCN [N-(2-Aminoethyl)acetamide] | > 1000 | could not detect any binding |  |
| CC1CCC(=O)N1 (stereo not drawn) [5-Methylpyrrolidin-2-one] | 19 ± 6 |  |  |
| O=C1CCCC(=O)N1 [Glutarimide, Piperidine-2,6-dione] |  |  | effect on pectoral fin deformity of injecting zcrbnYW/AA mRNA (thalidomide-insensitive cereblon mutant) [2, 5]: alleviated; pectoral fin deformity / teratogenic effect [2, 5]: strongest effect; also recorded: cause developmental defects |
| O=C1CCCC(=O)O1 [Glutaric Anhydride] | > 1000 |  |  |
| N-(2-Hydroxypropyl)acetamide |  | could not detect any binding | Ki (MsCI4 [1]; [6]): > 1000 µM |
| O=C1CCNC(=O)N1 [Dihydrouracil, Hexahydropyrimidine-2,4-dione] | 88 ± 6.8 |  |  |
| O=c1[nH]cc([C@@H]2O[C@H](CO)[C@@H](O)[C@H]2O)c(=O)[nH]1 [Pseudouridine] | > 1000 | not detectable; also recorded: no detectable binding |  |
| O=C1CCCN1 [γ-Butyrolactam, Pyrrolidin-2-one] | 57 ± 11.6 |  |  |
| CN1CC(=O)NC1=N [Creatinine, 2-Imino-N-methylhydantoin] | > 1000 |  |  |
| CC(=O)NCCCCC(N)C(=O)O (stereo not drawn) [N-ε-Acetyllysine, 2-azaniumyl-6-acetamidohexanoate] | > 1000 | could not detect any binding |  |
| CC(N)=O [Acetamide] |  | could not detect any binding | Ki (MsCI4 [1]; [6]): > 1000 µM |
| O=C1CC(=O)NC(=O)N1 [Barbiturate] | > 1000 | abolished binding | pectoral fin deformity / teratogenic effect [2, 5]: no effect; also recorded: does not cause any effects |
| CCC1(C)CC(=O)NC1=O (stereo not drawn) [Ethosuximide, 3-Ethyl-3-methylsuccinimide] | 136 ± 11.6 |  |  |
| O=C1CSC(=O)N1 [Thiazolidine-2,4-dione] | 137 ± 15.9 |  |  |
| O=C1CCC(N2C(=O)c3ccccc3C2=O)C(=O)N1 (stereo not drawn) [Thalidomide] |  |  | pectoral fin development in zebrafish embryos ([3]; zebrafish embryos): stunted pectoral fins; pectoral fin phenotype ([2]; zebrafish, 200 μM): not clearly identifiable |
| O=c1ccn([C@@H]2O[C@H](CO)[C@@H](O)[C@H]2O)c(=O)[nH]1 [Uridine] | 13 ± 1.9 |  | teratogenic effect on fin formation in zebrafish ([3]; zebrafish): same effect on fin formation |
| C[C@@H]1C[C@@H]([C@H](O)CC2CC(=O)NC(=O)C2)C(=O)[C@@H](C)C1 [Cycloheximide] | > 1000 | abolished binding |  |
| Nc1cc[nH]c(=O)n1 [Cytosine] | > 1000 |  |  |

| Compound | Ki (MsCI4 [1]) [µM] | binding to MsCI4 in the FRET assay (in words) (MsCI4 [1]; FRET assay) | also measured |
| --- | --- | --- | --- |
| Cc1cn([C@H]2C[C@H](O)[C@@H](CO)O2)c(=O)[nH]c1=O [Thymidine] | 204 ± 34.5 | very low but measurable affinities |  |
| S=C1CCCN1 [Pyrrolidine-2-thione] | > 1000 |  |  |
| O=c1ccn([C@H]2C[C@H](O)[C@@H](CO)O2)c(=O)[nH]1 [Deoxyuridine] | 15 ± 1.6 |  |  |
| NC(=O)NC(=O)Cc1ccccc1 [Phenylacetylurea] |  | did not bind | Ki (MsCI4 [1]; [6]): > 1000 µM |
| COc1ccc(C2CNC(=O)C2)cc1OC1CCCC1 (stereo not drawn) [Rolipram] |  |  | binding verified via crystallography (in words) (MsCI4 [4]): binding was confirmed via crystallography; binding verified via crystallography (in words) (MsCI4 [4]; listed as rolipram): could verify its binding via crystallography; also recorded: verified by crystallography; binding verified via crystallography (symbol in Table S1) (MsCI4 [4]; Table S1): X-tal |
| Pyrrol-2,5-dione [Maleimide] |  |  | Ki (MsCI4 [1]; [6]): 35 ± 3.1 µM |
| O=C1CCCCCCN1 [1-Azo-2-Cyclooctanone] |  |  | Ki (MsCI4 [1]; [6]): > 1000 µM |
| C1CCNCC1 [Piperidine] | > 1000 |  |  |
| O=c1cc[nH]c(=O)[nH]1 [Uracil, Pyrimidine-2,4-dione] | 35 ± 5.1 |  |  |
| CC(=O)NC(N)=O [N-Acetylurea] |  | detectable | Ki (MsCI4 [1]; printed in figures and text, FRET assay, read-out: Experimental Ki values for MsCI4): 522 µM |
| O=C1CNC(=S)N1 [2-Thiohydantoin] | 13 ± 1.3 |  |  |
| COc1ccc(C2CNC(=O)C2)cc1OCCCN1CCC(C(=O)c2ccc(F)cc2)CC1 (stereo not drawn) [Lidanserin] | 25 ± 8.5 |  |  |
| C1CCNC1 [Pyrrolidine] |  |  | Ki (MsCI4 [1]; [6]): > 1000 µM |
| O=C1CCN1 [Azetidin-2-one] |  |  | Ki (MsCI4 [1]; [6]): 77 ± 11 µM |
| Cc1c[nH]c(=O)[nH]c1=O [Thymine, 5-Methylpyrimidine-2,4-dione] | 478 ± 41.6 | very low but measurable affinities |  |
| O=C1CCC(=O)N1 [Succinimide, Pyrrolidine-2,5-dione] | 4.3 ± 0.5 |  |  |
| CC1(C)OC(=O)NC1=O [5,5-Dimethyl-oxazolidine-2,4-dione] | > 1000 | no detectable binding |  |
| O=C1CCCCCN1 [ε-Caprolactam] | > 1000 | no detectable binding |  |
| CN1CC(=O)NC1=O [N-Methylhydantoin] | 16 ± 1.3 |  |  |
| O=C1CCCCN1 [δ-Valerolactam, Piperidin-2-one] | 146 ± 20.3 |  |  |
| O=C1CCCO1 [γ-Butyrolactone] | > 1000 |  |  |
